Measurements reported in patent publication US20250026725A1, “HYDRATE CRYSTAL OF 5-CHLORO-4-(3-CHLORO-4- METHYLPHENYL)-1H-IMIDAZOLE-2-CARBONITRILE” (ISHIHARA SANGYO KAISHA, LTD., priority 2021, published 2025).
In brackets after ≈: the same amount, converted by molar mass. Where two headings read alike, the source gives them in different places.

What was measured:
Format in all cases: cell-based
[1] = tested on: Malassezia restricta (IFM55992); assay: Antifungal activity test, minimum fungicidal concentration (MFC100); settings: 1 minute contact, MLNA medium 32° C. for 72 hours, read-out: Minimal fungicidal concentration (MFC100)
Protocol: A fungus of Malassezia (Malassezia restricta) that had been cultured on a CHROMagar (trademark) Malassezia/Candida raw medium (peptone, specialized enzyme-substrate mixture, chloramphenicol, olive oil, agar, manufactured by KANTO CHEMICAL CO., INC.) for 5 to 7 days was suspended in physiological saline to prepare so as to have an absorbance of 0.025 at 600 nm. The compound under test dissolved in DMSO was added thereto so as to have final concentrations of 200, 100, 50, and 25 ppm. 1 minute later, 10 μL of suspension and 10 mL of physiological saline were added to a syringe and stirred, and then the mixture was filtered by connecting to a 37 mm quality monitor (manufactured by Pall Corporation) and washed twice with 10 ml of physiological saline. The membrane filters were removed from the quality monitor, and placed and cultured on a Leeming & Notman agar Modified medium (MLNA medium) (peptone, glucose, yeast extract, dried bovine bile, glycerol, glycerin stearate, Tween 60, olive oil, agar) at 32° C. for 72 hours, and the presence or absence of the development of colonies was examined to determine a minimum fungicidal concentration MFC100). A minimum fungicidal concentration (MFC100) for Malassezia restricta (IFM55992) was determined in the same method as in Test Example 11 except that the hydrate crystal (Production Example 2) was used as the compound under test.

[2] = tested on: Microsporum canis (IFM63627); assay: Antifungal activity test, minimum fungicidal concentration (MFC100) on spores by treatment time; settings: read-out: Minimal fungicidal concentration (MFC100)
Protocol: Microsporum canis was cultured on a 1/10 Sabouraud medium at 32° C. for 168 hours to form spores. Then, 10 mL of physiological saline solution (OTSUKA NORMAL SALINE; containing the equivalent of 9 g of sodium chloride in 1000 mL) was directly added over the medium, and the surface was scraped with a disposable loop (Type 1 (1 μL) to collect a spore suspension containing mycelia. The spore suspension containing mycelia was filtered through a cell strainer ((40 μm). Spores were collected from a filtrate by centrifugation (3500 rpm, 5 minutes), and washed twice with physiological saline to prepare a spore suspension (1×10^7 cells/mL). 10 μL of the spore suspension was inoculated into 90 μL of physiological saline solution to which the compound under test dissolved in DMSO was added so as to have a predetermined concentration. Every time a predetermined time lapsed, 10 μL of a test solution containing spores was taken out. Spores were collected from the test solution thus taken out by centrifugation (3500 rpm, 5 minutes), and washed twice with physiological saline to prepare 10 μL of spore suspension. […]
A minimum fungicidal concentration (MFC100) for Microsporum canis (IMF63627) was determined in the same method as in Test Example 8 except that the hydrate crystal (Production Example 2) was used as the compound under test.

[3] = tested on: Staphylococcus pseudintermedius (JCM 17571); assay: Antimicrobial activity test, minimum bactericidal concentration (MBC100); settings: JCM17571, S. pseudintermedius, 1 minute contact, then culture at 30° C. for 72 hours
Protocol: Staphylococcus pseudintermedius that had been cultured on a Luria Broth (LB) agar medium plate (peptone, yeast extract, sodium chloride, agar, from Invitrogen) for 24 hours was suspended in physiological saline to prepare so as to have an absorbance of 0.025 at 600 nm. The compound under test dissolved in DMSO was added thereto so as to have final concentrations of 200, 100, 50, and 25 ppm, and 1 minute later, 10 μL of suspension and 10 mL of physiological saline were added to a syringe and stirred. After that, the mixture was filtered by connecting to a 37 mm quality monitor (manufactured by Pall Corporation) and washed twice with 10 ml of physiological saline. As such, membrane filters were permeated with an LB medium, culturing was performed at 30° C. for 72 hours, the presence or absence of the development of colonies was examined to determine a minimum bactericidal concentration (MBC100). A minimum bactericidal concentration (MBC100) for Staphylococcus pseudintermedius (JCM 17571) was determined in the same method as in Test Example 6 except that the hydrate crystal (Production Example 2) was used as the compound under test.

[4] = tested on: Malassezia pachydermatis (IFM56528); assay: Antifungal activity test, minimum fungicidal concentration (MFC100); settings: 1 minute contact, culture 32° C. for 72 hours, read-out: Minimal fungicidal concentration (MFC100)
Protocol: Malassezia pachydermatis that had been cultured on a Sabouraud medium (1% peptone, 4% […], 1.5% agar) for 5 to 7 days was suspended in physiological saline to prepare so as to have an absorbance of 0.025 at 600 nm. The compound under test dissolved in DMSO was added thereto so as to have final concentrations of 200, 100, 50, and 25 ppm. 1 minute later, 10 μL of suspension and 10 mL of physiological saline were added to a syringe and stirred, and then the mixture was filtered and washed by connecting to a 37 mm quality monitor (manufactured by Pall Corporation) and washed. As such, membrane filters were permeated with the Sabouraud medium, culturing was performed at 32° C. for 72 hours, the presence or absence of the development of colonies was examined to determine a minimum fungicidal concentration (MFC100). A minimum fungicidal concentration (MFC100) for Malassezia pachydermatis (IFM56528) was determined in the same method as in Test Example 9 except that the hydrate crystal (Production Example 2) was used as the compound under test.

[5] = tested on: Trichophyton rubrum (ATCCMYA4607); assay: Antifungal activity test, minimum inhibitory concentration (MIC100); settings: Sabouraud medium, 32° C. for 72 hours
Protocol: Trichophyton rubrum was cultured on a Sabouraud medium at 32° C. for 168 hours to form spores. Mycelia were peeled from a medium surface and collected into a tube, physiological saline solution (OTSUKA NORMAL SALINE; containing the equivalent of 9 g of sodium chloride in 1000 mL) was added thereto, and the entire mixture was mixed and dispersed with a disposable loop (Type 1 (1 μL)) to collect a spore suspension containing mycelia. The spore suspension containing mycelia was filtered through a cell strainer (+40 μm). Spores were collected from a filtrate by centrifugation (3500 rpm, 5 minutes), and washed twice with physiological saline to prepare a spore suspension (1×10^6 cells/mL). 10 μL of the spore suspension was inoculated into the Sabouraud medium to which the test compound dissolved in DMSO was added so as to have a predetermined concentration. Trichophyton rubrum was cultured at 32° C. for 72 hours, and then the presence or absence of the development of colonies was examined to determine a minimum inhibitory concentration (MIC100).
A minimum inhibitory concentration (MIC100) for Trichophyton rubrum (ATCCMYA4607) was determined in the same method as in Test Example 12 except that the hydrate crystal (Production Example 2) was used as the compound under test.

MIC [5]: 5 mg/L (≈ 19.8 µM)
Structure (SMILES): Cc1ccc(-c2nc(C#N)[nH]c2Cl)cc1Cl [Anhydrous crystal, 5-chloro-4-(3-chloro-4-methylphenyl)-1H-imidazole-2-carbonitrile]
MFC [1]: 200 mg/L (≈ 793 µM)
MFC ([2]; treatment time 24 hours): 50 mg/L (≈ 198 µM)
MFC ([2]; treatment time 96 hours): 10 mg/L (≈ 39.7 µM)
MBC [3]: 50 mg/L (≈ 198 µM)
MFC [4]: 50 mg/L (≈ 198 µM)
